Test results taken from patent US20250186554A1, “FORMULATIONS COMPRISING ACID-NEUTRALIZING POLYMER FOR ORAL ADMINISTRATION OF GLUCAGON-LIKE PEPTIDE-1 AND ANALOGS THEREOF” (Entera Bio Ltd., priority 2022, published 2025).

Legend:
[1] = in vivo; cited from earlier work
[2] = pH upon addition of test substance to 0.1 M HCl solution (pH 1.2), pH meter; format: physicochemical
Experimental: Test substances were dissolved in various volumes of 0.1 M HCl solution (pH 1.2) at concentrations of 1, 2, 4, 10, 20, 50, 100 and 150 mg/ml. The solution pH was determined using an MP-103 pH-meter (MRC, Israel) equipped with ELC-10-00 electrode (MRC, Israel) or with a thin electrode HI1083 (HANNA instruments Inc.), shortly after dissolution and up to 26 hours later in order to ensure that the pH remained stable. The highest pH value obtained during the experimental time period was recorded in order to compare the acid-neutralizing capacity of each substance.
SNAC and the basic polymers sodium alginate, sodium carboxymethylcellulose in non-crosslinked (Na-CMC) and crosslinked (croscarmellose sodium, CCS) forms, and sodium starch glycolate (SSG) were dissolved in various volumes of 0.1 M HCl solution (pH 1.2) at concentrations of 1, 2, 4, 10, 20, 50, 100 and 150 mg/ml, and the solution pH was determined using an MP-103 pH-meter (MRC, Israel) equipped with ELC-10-00 electrode (MRC, Israel), as described in the Materials and Methods section hereinabove.
In order to obtain a beneficial rise in pH with a reduced loss of the active form of the absorption enhancer, the effect of various concentrations of different polymers containing carboxylate groups (sodium alginate, sodium starch glycolate, sodium carboxymethylcellulose, and croscarmellose sodium) on pH upon addition to a 0.1 M HCl solution (pH 1.2) was also evaluated. FIG. 2A presents pH values determined using an MP-103 pH-meter (MRC, Israel) equipped with ELC-10-00 electrode (MRC, Israel) and FIG. 2B presents pH values determined using an MP-103 pH-meter (MRC, Israel) equipped with a thin electrode HI1083 (HANNA instruments Inc.).

Which half-life [1] does the source give for “Semaglutide: fatty acid derivative of a GLP-1 homolog” here?
The half-life was “about 7 days”.

With `O=C(O)CCCCCCCNC(=O)c1ccccc1O` [SNAC, sodium 8-N-(2-hydroxybenzoyl)aminocaprylate] as the compound, how does the “pH 5 minutes after dissolution” value ([2]; 10 mg/ml SNAC added to HCl solution (pH 1.2)) read?
The value was “about 1.5”.

And the “pH 5 minutes after dissolution” value ([2]; 20 mg/ml SNAC added to HCl solution (pH 1.2))?
The value was 6.5.

What about the “pH 5 minutes after dissolution” value ([2]; 100 mg/ml SNAC added to HCl solution (pH 1.2)) of the same compound?
The value was “about 7.5”.
